Read-outs that look alike come from different tables or passages of the source.
Columns and labels:
[1] = On-chip SPE-nanoLC-MS quantification of PFCs in human blood samples
Description: Standard stock PFCs solutions are prepared by diluting PFC standards (a list of which is shown in Table 2) in methanol in polypropylene vials. All glassware is rinsed with methanol before use. For plasma samples spiked with PFCs, frozen pooled human plasma is obtained from Innovative Research Inc. (Novi, Mich.). A 5 microliter aliquot of human plasma is thawed and mixed with 2.5 microliters of internal standards (^13C8-PFOA and ^13C8-PFOS, 50 ng/ml), 2.5 microliters of PFC standards with desired concentration, and 20 microliters of cold acetonitrile with 0.1% formic acid. After vortexing for 2 min, the mixture is sonicated for 10 min and then centrifuged at 14,000 g for 15 min. 24 microliters of the supernatant is taken out and allowed to evaporate at room temperature until the volume is reduced to around 16 microliters. All samples are stored in polypropylene vials at minus 20 degree Celsius. Standard Reference Materials (SRMs) 1950 Metabolites in Human Plasma ordered from National Institute of Standards and Technology (NIST) are stored at minus 80 degree Celsius before use. NIST SRM 1950 is thawed at room temperature and prepared by the same procedure as pooled plasma samples for validation of the chip performance.
The SPE run starts with conditioning a C18-packed SPE column by flowing 20 microliters of LC solvent B (95%/5% methanol/H2O with 2 mM ammonium acetate) at 10 microliters/min through the inlet port P1. The column is then equilibrated with 20 microliters of LC solvent A (5%/95% methanol/H2O with 2 mM ammonium acetate) at 10 microliters/min. Four microliters of the sample (containing lmicroliters of plasma) are injected into a 20-microliter sample loop and loaded onto the SPE column, followed by washing with 20 microliters of LC solvent A at 10 microliters/min. Next, the analytes are eluted from the SPE column with LC solvent B at 1 microliter/min and transferred to the trap column by mixing it with another stream of LC solvent A through the port P3 (20 microliters/min). The passive microfluidic mixer including herringbone structures enables efficient mixing of two streams and thus prevents heterogeneous streaming of organic solvent from the SPE eluent, allowing the analytes to be enriched on the trap column efficiently. Finally the HPLC gradient elution at flow rate of 600 nl/min is run to separate the analytes that are to be analyzed by nanoESI-MS. The LC solvent A consists of 5%/95% methanol/H2O with 2 mM ammonium acetate, and solvent B consists of 95%/5% methanol/H2O with 2 mM ammonium acetate. […] After that, it is increased to 95% B in 5 minutes and held at 95% B for 5 minutes. Finally it returns to the initial condition (10% B) in 2 minutes and is held for 5 minutes. The total time period for each SPE-LC-MS run is about one hour. Negative-ion-mode MS detection are performed on a hybrid quadrupole/orthogonal Q-TOF API US mass spectrometer (Waters Corp.). The capillary voltage and cone voltage are set to −2.4 kV and 25 V, respectively, and the collision energy is fixed at 10 eV. The nanoelectrospray process on emitters is visualized and monitored using a Waters nanoflow camera kit equipped with a MLH-10 Zoom lenses (Computar).
The raw LC-MS data are processed using MassLynx 4.0 software package provided with the Q-TOF API US instrument (Waters Corp.). Extracted ion chromatograms (EIC) for all target analytes are generated using their corresponding precursor/product ions with a mass window of 0.10 Da. The peak area ratio of each analyte relative to its corresponding isotope-labelled internal standard is used for quantification. For perfluorocarboxylate compounds, their product ions are used for quantitation, because their product ions are more abundant (3-5 times) than precursor ions under current MS settings. The abundance ratio between the product ion and precursor ion for each perfluorocarboxylate compound is found to be consistent over the wide concentration range (1-100 ng/ml). […]

[2] = U.S. population of 20 years and older, cited from earlier work
[3] = target: human serum albumin (HSA) (Homo sapiens, UniProt P02768); conditions: cited from earlier work
[4] = NIST SRM 1950 human plasma; reference value provided by NIST; cited from earlier work
[5] = NIST SRM 1950 human plasma, SPE-LC-MS chip
[6] = pooled human plasma, SPE-LC-MS chip

Chain of human serum albumin (HSA) (P02768 25-609): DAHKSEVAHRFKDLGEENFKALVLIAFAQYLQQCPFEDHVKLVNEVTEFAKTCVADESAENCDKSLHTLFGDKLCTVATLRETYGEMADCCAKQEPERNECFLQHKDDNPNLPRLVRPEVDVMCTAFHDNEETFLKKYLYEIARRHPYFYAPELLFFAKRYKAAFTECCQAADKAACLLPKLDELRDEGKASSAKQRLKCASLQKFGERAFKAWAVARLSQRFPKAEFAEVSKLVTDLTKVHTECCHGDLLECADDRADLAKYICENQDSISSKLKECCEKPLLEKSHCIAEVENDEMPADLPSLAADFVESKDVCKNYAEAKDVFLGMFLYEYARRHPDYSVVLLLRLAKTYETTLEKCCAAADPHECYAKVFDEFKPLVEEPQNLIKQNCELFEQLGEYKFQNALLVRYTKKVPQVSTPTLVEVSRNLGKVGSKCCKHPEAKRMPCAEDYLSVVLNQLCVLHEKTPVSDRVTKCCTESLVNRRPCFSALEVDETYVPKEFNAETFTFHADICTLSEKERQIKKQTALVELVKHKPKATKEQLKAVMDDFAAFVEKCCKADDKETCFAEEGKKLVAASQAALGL

Compound	Concentration of PFCs, NIST SRM 1950, Measured Value ([1]; human)	Concentration of PFCs, Pooled plasma, Measured Value ([1]; human)	Individual serum, National Exposure Report by CDC, geometric mean (95% confidence interval) ([2]; survey year 2009-2010)	Individual serum, National Exposure Report by CDC, geometric mean (95% confidence interval) ([2]; survey year 2011-2012)	number of PFOA binding sites to human serum albumin (HSA) [3]	PFOA bound to HSA in human blood ([3]; human blood)	Concentration of PFCs, NIST SRM 1950, Measured Value [1, 5]	Concentration of PFCs, Pooled plasma, Measured Value [1, 6]	Concentration of PFCs, NIST SRM 1950, Reference Value [4]
NS(=O)(=O)C(F)(F)C(F)(F)C(F)(F)C(F)(F)C(F)(F)C(F)(F)C(F)(F)C(F)(F)F [PFOSA, Perfluorooctane sulfonamide]	0.172 ± 0.078 ng/mL	0.094 ng/mL	<0.1; <0.1 ng/ml	<0.1; <0.1 ng/ml					
O=C(O)C(F)(F)C(F)(F)C(F)(F)C(F)(F)C(F)(F)C(F)(F)C(F)(F)F [PFOA, Perfluorooctanoic acid]					over 6	more than 90%			
O=S(=O)(O)C(F)(F)C(F)(F)C(F)(F)C(F)(F)C(F)(F)C(F)(F)C(F)(F)C(F)(F)F [PFOS, Perfluorooctane sulfonic acid]			9.72 (8.45-11.2) ng/ml	6.71 (6.24-7.20) ng/ml			11.1 ± 0.36 ng/mL	4.76 ng/mL	10.6 ± 0.13 ng/mL
O=C(O)C(F)(F)C(F)(F)C(F)(F)C(F)(F)C(F)(F)C(F)(F)C(F)(F)C(F)(F)C(F)(F)F [PFDeA, Perfluorodecanoic acid]			0.289 (0.265-0.314) ng/ml	0.209(0.189-0.230) ng/ml			0.364 ± 0.033 ng/mL	0.279 ng/mL	0.322 ± 0.007 ng/mL
O=S(=O)(O)C(F)(F)C(F)(F)C(F)(F)C(F)(F)C(F)(F)C(F)(F)F [PFHxS, Perfluorohexane sulfonic acid]			1.61 (1.45-1.79) ng/ml	1.28 (1.14-1.43) ng/ml			3.53 ± 0.38 ng/mL	1.18 ng/mL	3.25 ± 0.080 ng/mL
